Publication PMC5812345 (Chemistry (Weinheim an der Bergstrasse, Germany), 2017)

Tested on: U87-stb-CXCR4 cells
Test: In vitro binding/uptake of 64Cu-labeled cyclotides to U87-stb-CXCR4 cells
Assay type: cell-based, human
Conditions: inhibitor at 10 μM

c1cc(CN2CCCNCCNCCCNCC2)ccc1CN1CCCNCCNCCCNCC1 [AMD3100]
Reduction in bound [^64Cu]MCo-CVX-6D in the presence of excess non-radioactive inhibitor: ≈ 30%
